Entries after “also recorded” stand apart in the source; their conditions may differ.
How the values were obtained:
[1] = system: plasma acylcarnitines and other metabolites; test: Plasma metabolomics (LC/MS/MS), day 28 vs day -1; format: in vivo, human; conditions: 500 mg/day for 28 days
Protocol: Blood handling procedures: at each time point indicated in the table, a 6 mL blood sample was drawn into K2-EDTA coated tube. The blood samples were gently inverted a few times for complete mixing with the anticoagulant. The exact time of sample collection was recorded on the eCRF. Within 30 minutes following blood collection, each blood sample was centrifuged at 1500 g for 10 minutes at 4° C. 30 minutes after the centrifugation, the top layer of human plasma was transferred into 2 pre-labelled polypropylene tubes, containing approximately 1500 μL of plasma. Blood cells were not transferred. All sample tubes were clearly and appropriately labelled. Tubes were capped immediately from each time point and the plasma was be frozen in an upright position at approximately −80° C. for storage. Measurement of metabolites: Samples were extracted and split into equal parts for analysis on the LC/MS/MS and Polar LC platforms. Proprietary software was used to match ions to an in-house library of standards for metabolite identification and for metabolite quantitation by peak area integration. A total of 781 metabolites were quantified. Metabolomics is the study of known measurable metabolites in a sample. […] The technique made use of HPLC-MS-MS analysis of plasma samples of subjects administered either placebo or urolithin A to characterise metabolites. 781 plasma metabolites which cover all of the biochemical processes of the body were investigated. […] The grey line in FIG. 8 corresponds to a fold change of 1, i.e. absence of effect. *P<0.05 correspond to a significant effect from D-1 (pre-dose) to D28, calculated after a repeated measures ANOVA. N=9 per group. Values represent the arithmetic mean of the fold changes.

[2] = Steady state plasma levels of total Urolithin A (parent + glucuronide and sulfate) over 28 days of dosing; format: in vivo, human; conditions: 500 mg/day oral for 28 days, total Urolithin A in plasma
Protocol: A double-blind, randomized, placebo controlled clinical trial was conducted in healthy elderly to establish the steady state levels of Urolithin A in plasma. Elderly subjects (61-82 years) (n=9), participated in each group of dosing. The subjects met all the inclusion and exclusion criteria of the study and signed informed consent. The subjects were overnight fasted and the plasma was collected in the morning before breakfast to assess steady state levels. Subjects were given a dose of Urolithin or placebo each morning for the 28 day trial, The urolithin A was given as softgel capsules containing 250 mg of Urolithin A in each capsule. Plasma samples were collected for assessment of Urolithin A steady state concentrations in the 4-week Urolithin A study at the following time points (Day 0, Day 7, Day 14, Day 28, Day 29, Day 31, and Day 32) were measured On day 28 the subjects were admitted to a Phase I clinical trial unit and the kinetics of Urolithin A absorption, and elimination following multiple 4-week dosing were followed until 96 hours following the last dosing on Day 28. Plasma was collected at the following time-points post last dosing with Urolithin A on Day 28: pre-dose, 1 hr, 2 hr, 4 hr, 6 hr, 8 hr, 12 hr, 24 hr, 72 hr and 96 hr. […] The exact time of sample collection was recorded on the eCRF (electronic case report from). […]

clinical [3] = conditions: human, in vivo, po
Protocol: Part B: The study was a double-blinded, randomized, multiple ascending dose study in 36 healthy elderly male and female volunteers. Each subject was randomised to receive study product or placebo for 28 days.
Part B: Repeated oral dose administration from day 1 to day 28 according to the randomization. The administration took place around 8:00 am with around 200 mL tap water, in a sitting position, and under fasting conditions.
After multiple dosing: Cmax, tmax, AUC0-24 h, t1/2 From the plasma concentration-time data, the following pharmacokinetic parameters will be determined, as data permit using non-compartmental methods: maximum observed plasma concentration (Cmax(ng/mL), time at which maximum observed plasma concentration (tmax) (h), area under the plasma concentration-time curve AUC(0-24 h) (ng/mL*h) and AUC0-∞) (ng/mL*h), and apparent terminal phase half-life (t1/2) (h).
(§1) Blood sampling was performed for urolithin A concentration measurements at the exact timepoints with an authorised time window described in the table below:
(§2) At each time point indicated in the table, a 6 mL blood sample was drawn into K2-EDTA coated tube. The blood samples were gently inverted a few times for complete mixing with the anticoagulant. The exact time of sample collection was recorded on the eCRF. Within 30 minutes following blood collection, each blood sample was centrifuged at 1500 g for 10 minutes at 4° C.
(§3) From the plasma concentration-time data, the following pharmacokinetic parameters were determined, as data permit using non-compartmental methods: maximum observed plasma concentration (Cmax), time at which maximum observed plasma concentration (tmax), area under the plasma concentration-time curve AUC(0-24 h) and AUC(0-∞), and apparent terminal phase half-life (t1/2).

clinical [4] = conditions: human, in vivo, po; for AUC(0-t) / Cmax: both sexes
Protocol: Part A: The study was a double-blind, randomized, single ascending doses, study in 24 healthy elderly male and female volunteers. Each subject was randomized for two subsequent doses in three cohorts.
Part A: Single oral dose administration on D1 of each period according to the randomisation. The administration took place around 8:00 am with around 200 mL tap water, in sitting position, and under fasting conditions.
After single dosing: Cmax, tmax, AUC0-t, AUC0-∞, t1/2
as §1, §2, §3
FIG. 1 summarises certain plasma pharmacokinetic parameters of urolithin A following single dose oral administration at 250 mg, 500 mg, and 2000 mg urolithin A dosages.

[5] = system: mitochondrial gene sets in vastus lateralis muscle; test: Microarray / Gene Set Enrichment Analysis of gene expression in skeletal muscle biopsies after 28 days dosing; format: in vivo, human; conditions: 500 mg/day for 28 days vs placebo group
Protocol: Muscle biopsies were collected before the meal from the vastus lateralis muscle of the right leg in order to perform ex vivo measurements.
Muscle biopsies were collected on Day −1 and Day 28 at pre-dose under fasted state using the Bergstrom biopsy needle technique. The minimal amount of each muscle tissue sample was approximately […]. One third of the tissue was used for gene expression (≈50 mg), and was further divided into two equal portions: one portion for RNA analysis (≈25 mg) and one portion for DNA analysis (≈25 mg), both in a Safe-lock Tubes 2.0 ml, Eppendorf (part no. 0030.120.094). Muscle tissue was snap frozen using liquid nitrogen immediately after collection and further, long term storage will be in a −80° C. freezer. The mRNA was analysed by qPCR. Quantification of mtDNA over nuclear DNA provided another measure of mitochondrial abundance. The shipment was done in dry ice by specialized carrier. Temperatures were monitored using data logger during all transport.
Gene expression on available remaining muscle tissues samples was performed by microarrays.
Microarray analysis was carried out on skeletal muscle biopsies of human subjects administered urolithin A or placebo daily for 28 days. Approximately 30,000 gene transcripts were quantified by microarray in muscle biopsies and compared (day 28 vs. day −1). Gene Set Enrichment Analysis was conducted on 6166 gene sets. […]

[6] = system: myostatin/follistatin ratio; test: ELISA of plasma muscle function markers, day 28 vs day -1; format: in vivo, human; conditions: 500 mg/day for 28 days, day 28 vs day -1, compared with placebo
Protocol: Blood handling procedures: at each time point indicated in the table, a 6 mL blood sample was drawn into K2-EDTA coated tube. The blood samples were gently inverted a few times for complete mixing with the anticoagulant. The exact time of sample collection was recorded on the eCRF. Within 30 minutes following blood collection, each blood sample was centrifuged at 1500 g for 10 minutes at 4° C. 30 minutes after the centrifugation, the top layer of human plasma was transferred into 2 pre-labelled polypropylene tubes, containing approximately 1500 μL of plasma. Blood cells were not transferred. All sample tubes were clearly and appropriately labelled. Tubes were capped immediately from each time point and the plasma was be frozen in an upright position at approximately −80° C. for storage. Measurement of markers of muscle function: Markers of muscle function, including myostatin and follistatin, were measured using an ELISA based method. Every sample was analysed in technical duplicates together with a standard curve made with each isolated analyte. The amount of each marker was expressed as an absolute concentration in plasma (pg to μg/ml of plasma, depending on the analyte). Analysis of the levels of muscle biomarkers myostatin and follistatin, which are found in plasma of human subjects, was carried out using ELISA.

Which plasma carnitine levels [1] does the source give for O=c1oc2cc(O)ccc2c2ccc(O)cc12 [Urolithin A] here?
Its plasma carnitine levels is “did not change”.

And the “change in plasma acylcarnitines, short chain up to long chain (fold change)” value ([1]; day -1 to day 28, N=9)?
The value was “overall decrease; also recorded: significant impact”.

And the “change in plasma pyruvate, lactate, acetoacetate, 3-hydroxyoctanoate and glucose (fold change)” value ([1]; day -1 to day 28, N=9)?
Its value is “no significant change”.

What about the “steady state levels after end of the 4-week administration (Day 31 and Day 32)” value [2] of the same compound?
Its value is “gradually declined”.

And the AUC (clinical [3]; both sexes, 500 mg)?
The AUC was 10.7 ng·h/mL.

What about the Cmax (clinical [3]; both sexes, 500 mg) of the same compound?
The Cmax was 1.25 ng/mL.

And the “pharmacokinetic profile over the 28 day period (plasma concentrations 24 h after previous dose, days 7, 14, 28, 29)” value (clinical [3])?
The value was “stable”.

And the AUC(0-t) (clinical [4]; 500 mg)?
Its AUC(0-t) is 13.3 ng·h/mL.

What about the Cmax (clinical [4]; 500 mg) of the same compound?
The Cmax was 1.24 ng/mL.

And the AUC(0-t) (clinical [4]; 2000 mg)?
Its AUC(0-t) is 12.4 ng·h/mL.

And the Cmax (clinical [4]; 2000 mg)?
Its Cmax is 1.04 ng/mL.

What about the “dose-normalised plasma Cmax and AUC0-36 h (plasma levels per mg dosed)” value (clinical [4]) of the same compound?
The value was “higher plasma levels of urolithin A were observed per mg dosed”.

And the “enrichment in GO_MITOCHONDRION genes expression” value [5]?
The value was “significant”.

What about the “change in plasma myostatin/follistatin ratio” value [6] of the same compound?
The value was “significantly lower; also recorded: significant decrease”.
